What was measured:
[1] = molecular target: T1, calpain-1 isolated from human erythrocytes (Homo sapiens, UniProt P07384); assay: Calpain I enzyme inhibition in vitro, kinetic fluorescence assay; assay type: biochemical; conditions: apparent Ki calculated from IC50 by Cheng-Prussoff; 100 μM Suc-Leu-Tyr-AMC, pH 7.3, room temperature
T1 construct: 20 nM calpain-1-isolated from human erythrocytes (Calbiochem #208713); purchased Calbiochem 208713; host or cells: human erythrocytes (natural source)
T1 sequence (P07384 1-714): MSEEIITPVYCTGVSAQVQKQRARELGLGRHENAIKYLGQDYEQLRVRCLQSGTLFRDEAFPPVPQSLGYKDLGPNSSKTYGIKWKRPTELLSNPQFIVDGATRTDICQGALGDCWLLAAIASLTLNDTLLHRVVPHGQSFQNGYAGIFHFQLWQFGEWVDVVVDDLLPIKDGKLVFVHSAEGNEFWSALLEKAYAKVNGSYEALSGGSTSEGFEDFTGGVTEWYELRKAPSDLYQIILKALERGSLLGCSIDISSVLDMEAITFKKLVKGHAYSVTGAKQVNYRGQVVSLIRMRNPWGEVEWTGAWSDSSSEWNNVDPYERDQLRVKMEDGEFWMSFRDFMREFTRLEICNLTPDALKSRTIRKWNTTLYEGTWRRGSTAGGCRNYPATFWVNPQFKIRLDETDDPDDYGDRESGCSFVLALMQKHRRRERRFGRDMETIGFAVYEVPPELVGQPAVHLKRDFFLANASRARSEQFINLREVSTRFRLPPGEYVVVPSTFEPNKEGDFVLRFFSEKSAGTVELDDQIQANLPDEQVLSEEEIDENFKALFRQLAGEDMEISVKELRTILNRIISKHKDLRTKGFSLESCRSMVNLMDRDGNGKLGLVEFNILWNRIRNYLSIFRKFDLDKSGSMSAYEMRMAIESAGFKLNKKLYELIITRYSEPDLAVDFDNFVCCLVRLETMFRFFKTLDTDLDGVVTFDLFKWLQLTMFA
T1 sequence (P04632 1-268 partner): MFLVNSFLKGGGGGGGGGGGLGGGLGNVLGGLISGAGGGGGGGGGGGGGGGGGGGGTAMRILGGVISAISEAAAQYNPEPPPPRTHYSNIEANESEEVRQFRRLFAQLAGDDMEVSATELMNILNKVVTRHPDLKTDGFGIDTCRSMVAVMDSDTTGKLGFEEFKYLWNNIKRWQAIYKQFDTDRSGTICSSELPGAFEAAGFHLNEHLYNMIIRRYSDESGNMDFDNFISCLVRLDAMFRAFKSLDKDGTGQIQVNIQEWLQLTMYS
Method: (§1) The following solutions and buffers were employed: • HBS (for 40 ml): 800 μl 1M HEPES; 2.16 ml 100 mM KCl; 4.8 ml 1M NaCl; 3.59 ml 5% glucose; 60 μl 1M MgSO4; 400 μl 100 mM Na pyruvate, 28.19 ml water; pH 7.2-7.5. • lysis buffer (for 20 ml): 400 μl 1M Tris pH 8.2; 2.74 ml 1M NaCl; 520 μl 0.5M EDTA; 2 ml 10% triton X-100; 0.8 ml (=1:25) CompletePlus (1 tablet/2 ml H2O); 200 μl 100 mM Pefabloc; 13.34 ml water, pH 8.2. • TBST (10×) (for 11): 100 mM Tris (12.1 g); 1.5M NaCl (87 g); 1% Tween 20 (10 g), adjusted to pH 8. I Enzyme Inhibition In Vitro: • Testing for blockade of the corresponding enzymic activities was carried out by means of kinetic fluorescence assays (excitation 390 nm, emission 460 nm). • Apparent Ki values were calculated from the experimentally determined IC50 values by the Cheng-Prussoff relation assuming a reversible competitive enzyme inhibition. The Km values of the substrates used under the assay conditions indicated above were: 90 μM (Z-Phe-Arg-AMC, cathepsin B), 10 μM (Z-Gly-Pro-Arg-AMC, cathepsin K), 2 μM (Z-Phe-Arg-AMC, cathepsin L), and 30 μM (Z-Val-Val-Arg-AMC, cathepsin S). • The indicated Ki values are averages of the inhibition constants calculated on the basis of 2 to 4 independent dose-effect plots. • The following assays were used: • 1. Calpain I: • 20 nM calpain-1-isolated from human erythrocytes (Calbiochem #208713), 100 μM Suc-Leu-Tyr-AMC (Bachem #1-1355) as substrate in buffer with 62 mM imidazole, 0.3 mM CaCl2, 0.10% CHAPS, 0.05% BSA, 1 mM DTT at pH 7.3 and room temperature. • 2. Cathepsin B: • 0.25 nM cathepsin B—isolated from human liver (Calbiochem #219362), 100 μM Z-Phe-Arg-AMC (Bachem #1-1160) as substrate 50 mM MES, 2 mM EDTA, 0.05% Brij 35, 2.5 mM L-cysteine, pH 6.0, room temperature. • 3. Cathepsin K: • 3 nM cathepsin K-activated from recombinant human procathepsin K from E. coli (Calbiochem #342001), 10 μM Z-Gly-Pro-Arg-AMC (Biomol #P-142) as substrate in 50 mM MES, 2 mM EDTA, 0.05% Brij 35, 2.5 mM L-cysteine, pH 6.0, room temperature. • 4. Cathepsin L: • 1 nM cathepsin L—isolated from human liver (Calbiochem #219402), 2 μM Z-Phe-Arg-AMC (Bachem #1-1160) as substrate in 50 mM MES, 2 mM EDTA, 0.05% Brij 35, 2.5 mM L-cysteine, pH 6.0, room temperature. • 5. Cathepsin S: • 0.5 nM recombinant human cathepsin S from E. coli (Calbiochem #219343), 20 μM Z-Val-Val-Arg-AMC (Bachem #I-1540) as substrate in 50 mM MES, 2 mM EDTA, 0.05% Brij 35, 2.5 mM L-cysteine, pH 6.0, room temperature. • The results of the in vitro determination are indicated in Table 1. The following abbreviations are used in Table 1: • In the “Calpain activity” column, +++ stands for a calpain Ki (Ki(calpain)) of ≦40 nM, and ++ means: 40 nM<Ki(Calpain)≦100 nM and + means 100 nM<Ki(Calpain)≦300 nM. • The “Sel. cat. B” column indicates the Ki(cathepsin B)/Ki(calpain) ratio. In this connection, ++ means a Ki(cathepsin B)/Ki(calpain) ratio of ≧30 and + means 10≦Ki(cathepsin B)/Ki(calpain)<30. • The “Sel. cat. K” column indicates the Ki(cathepsin K)/Ki(calpain) ratio. In this connection, ++ means a Ki(cathepsin K)/Ki(calpain) ratio of ≧30 and + means 10≦Ki(cathepsin K)/Ki(calpain)<30. • The “Sel. cat. L” column indicates the Ki(cathepsin L)/Ki(calpain) ratio. In this connection, ++ means a Ki(cathepsin L)/Ki(calpain) ratio of ≧50 and + means 30≦Ki(cathepsin L)/Ki(calpain)<50. • The “Sel. cat. S” column indicates the Ki(cathepsin S)/Ki(calpain) ratio. In this connection, ++ means a Ki(cathepsin S)/Ki(calpain) ratio of ≧100 and + means 50≦Ki(cathepsin S)/Ki(calpain)<100.

[2] = molecular target: T2, recombinant human cathepsin S (Homo sapiens, UniProt P25774); assay: Cathepsin S enzyme inhibition in vitro, kinetic fluorescence assay (selectivity vs calpain); assay type: biochemical; conditions: ratio of Ki values; Z-Val-Val-Arg-AMC substrate, pH 6.0
T2 construct: purchased Calbiochem 219343; host or cells: E. coli
T2 sequence (P25774 115-331): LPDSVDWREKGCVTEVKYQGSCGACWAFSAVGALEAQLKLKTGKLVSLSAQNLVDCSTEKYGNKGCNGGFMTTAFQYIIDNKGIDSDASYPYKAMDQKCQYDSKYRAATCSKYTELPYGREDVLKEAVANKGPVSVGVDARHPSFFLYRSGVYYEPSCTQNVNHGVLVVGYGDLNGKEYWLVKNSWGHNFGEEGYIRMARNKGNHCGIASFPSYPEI
Method: as §1

[3] = molecular target: T3, cathepsin B isolated from human liver (Homo sapiens, UniProt P07858); assay: Cathepsin B enzyme inhibition in vitro, kinetic fluorescence assay (selectivity vs calpain); assay type: biochemical; conditions: ratio of Ki values; Z-Phe-Arg-AMC substrate, pH 6.0
T3 construct: 0.25 nM cathepsin B—isolated from human liver (Calbiochem #219362); purchased Calbiochem 219362; host or cells: human liver (natural source)
Method: as §1

[4] = molecular target: T4, cathepsin K activated from recombinant human procathepsin K (Homo sapiens, UniProt P43235); assay: Cathepsin K enzyme inhibition in vitro, kinetic fluorescence assay (selectivity vs calpain); assay type: biochemical; conditions: ratio of Ki values; Z-Gly-Pro-Arg-AMC substrate, pH 6.0
T4 construct: purchased Calbiochem 342001; host or cells: E. coli
T4 sequence (P43235 115-329): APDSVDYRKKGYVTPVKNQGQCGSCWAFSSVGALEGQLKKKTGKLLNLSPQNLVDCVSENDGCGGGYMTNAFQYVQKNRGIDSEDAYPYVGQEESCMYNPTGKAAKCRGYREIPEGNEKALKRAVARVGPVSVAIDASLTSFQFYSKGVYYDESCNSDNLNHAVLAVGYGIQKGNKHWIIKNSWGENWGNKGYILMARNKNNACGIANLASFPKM
Method: as §1

[5] = molecular target: T5, cathepsin L isolated from human liver (Homo sapiens, UniProt P07711); assay: Cathepsin L enzyme inhibition in vitro, kinetic fluorescence assay (selectivity vs calpain); assay type: biochemical; conditions: ratio of Ki values; Z-Phe-Arg-AMC substrate, pH 6.0
T5 construct: 1 nM cathepsin L—isolated from human liver (Calbiochem #219402); purchased Calbiochem 219402; host or cells: human liver (natural source)
T5 sequence (P07711 114-333): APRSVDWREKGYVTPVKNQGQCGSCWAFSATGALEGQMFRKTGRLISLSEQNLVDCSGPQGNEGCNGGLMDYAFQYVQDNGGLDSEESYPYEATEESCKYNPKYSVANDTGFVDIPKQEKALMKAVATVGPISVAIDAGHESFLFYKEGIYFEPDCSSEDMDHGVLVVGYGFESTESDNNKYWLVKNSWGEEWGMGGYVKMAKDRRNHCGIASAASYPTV
Method: as §1

[6] = Cytosolic clearance in human liver cytosol; assay type: in vitro ADME; conditions: 0.5 μM compound, 1 mg/ml human liver cytosol, 37° C., pH 7.5; read-out: human cytCL (cytosolic clearance)
[7] = Cytosolic clearance in cynomolgus monkey liver cytosol; assay type: in vitro ADME; conditions: female; 0.5 μM compound, 1 mg/ml cynomolgus monkey liver cytosol, 37° C., pH 7.5; read-out: cyno cytCL (cytosolic clearance)

| SMILES | Ki [1] [nM] | microsomal CLint at 0.5 μM [6] [µL/min/mg] | microsomal CLint at 0.5 μM [7] [µL/min/mg] | Sel cat. S (Ki(cathepsin S)/Ki(calpain) ratio) [2] | Sel cat. B (Ki(cathepsin B)/Ki(calpain) ratio) [3] | Sel cat. K (Ki(cathepsin K)/Ki(calpain) ratio) [4] | Sel cat. L (Ki(cathepsin L)/Ki(calpain) ratio) [5] |
| --- | --- | --- | --- | --- | --- | --- | --- |
| NC(=O)C(=O)C(Cc1ccccc1)NC(=O)c1cccnc1-c1csc(-c2ccc3ccccc3c2)n1 (stereo not drawn) [Example 9, N-(4-Amino-3,4-dioxo-1-phenylbutan-2-yl)-2-[2-(naphthalen-2-yl)-1,3-thiazol-4-yl]pyridine-3-carboxamide] | 40 to 100 | – | – | ++ (++ means a Ki(cathepsin S)/Ki(calpain) ratio of ≧100) | ++ (++ means a Ki(cathepsin B)/Ki(calpain) ratio of ≧30) | + (+ means 10≦Ki(cathepsin K)/Ki(calpain)<30) | ++ (++ means a Ki(cathepsin L)/Ki(calpain) ratio of ≧50) |
| O=C(NC1CC1)C(=O)C(Cc1ccccc1)NC(=O)c1cccnc1-c1csc(-c2ccccc2)n1 (stereo not drawn) [Example 13, N-(4-(Cyclopropylamino)-3,4-dioxo-1-phenylbutan-2-yl)-2-(2-phenylthiazol-4-yl)nicotinamide] | 100 to 300 | < 14 | < 18 | – | ++ (++ means a Ki(cathepsin B)/Ki(calpain) ratio of ≧30) | + (+ means 10≦Ki(cathepsin K)/Ki(calpain)<30) | + (+ means 30≦Ki(cathepsin L)/Ki(calpain)<50) |
| NC(=O)C(=O)C(Cc1ccc(F)cc1)NC(=O)c1cccnc1-c1csc(-c2ccccc2)n1 (stereo not drawn) [Example 15, N-(4-Amino-1-(4-fluorophenyl)-3,4-dioxobutan-2-yl)-2-(2-phenylthiazol-4-yl)nicotinamide] | 40 to 100 | – | – | ++ (++ means a Ki(cathepsin S)/Ki(calpain) ratio of ≧100) | ++ (++ means a Ki(cathepsin B)/Ki(calpain) ratio of ≧30) | + (+ means 10≦Ki(cathepsin K)/Ki(calpain)<30) | ++ (++ means a Ki(cathepsin L)/Ki(calpain) ratio of ≧50) |

Further lines, with some results ahead:

| Ki [1] [nM] | microsomal CLint at 0.5 μM [6] [µL/min/mg] | microsomal CLint at 0.5 μM [7] [µL/min/mg] | SMILES | Sel cat. S (Ki(cathepsin S)/Ki(calpain) ratio) [2] | Sel cat. B (Ki(cathepsin B)/Ki(calpain) ratio) [3] | Sel cat. K (Ki(cathepsin K)/Ki(calpain) ratio) [4] | Sel cat. L (Ki(cathepsin L)/Ki(calpain) ratio) [5] |
| --- | --- | --- | --- | --- | --- | --- | --- |
| ≤ 40 | – | – | NC(=O)C(=O)C(Cc1ccccc1)NC(=O)c1cccnc1-c1csc(-c2ccccc2Cl)n1 (stereo not drawn) [Example 8, N-(4-Amino-3,4-dioxo-1-phenylbutan-2-yl)-2-[2-(2-chlorophenyl)-1,3-thiazol-4-yl]pyridine-3-carboxamide] | ++ (++ means a Ki(cathepsin S)/Ki(calpain) ratio of ≧100) | ++ (++ means a Ki(cathepsin B)/Ki(calpain) ratio of ≧30) | + (+ means 10≦Ki(cathepsin K)/Ki(calpain)<30) | ++ (++ means a Ki(cathepsin L)/Ki(calpain) ratio of ≧50) |
| 100 to 300 | < 14 | < 18 | CONC(=O)C(=O)C(Cc1ccccc1)NC(=O)c1cccnc1-c1csc(-c2ccccc2)n1 (stereo not drawn) [Example 14, N-(4-(Methoxyamino)-3,4-dioxo-1-phenylbutan-2-yl)-2-(2-phenylthiazol-4-yl)nicotinamide] | – | – | – | – |

From US9567325B2, “Carboxamide compounds and their use as calpain inhibitors” (AbbVie Deutschland GmbH & Co. KG, priority 2009, dated 2017)
